System: primary hepatocytes
Details: mouse, 24 h
Experimental: Fifty μL of the sample to be quantified and 100 μL of acetonitrile were mixed, centrifuged at 14000 rpm for 10 minutes and the obtained supernatant (130 μL) was dried in nitrogen gas and was dissolved in a solution (10 mM potassium phosphate:acetonitrile, 65%:35% (v/v)) and measured by HPLC (Shimazu Prominence LC-20A) at flow rate of 1 mL/min and at an absorbance of 245 nm for 10 minutes.

SMILES: CCOc1ccc(NC(C)=O)cc1 [phenacetin]
- decrease of the drug administered (50 μM): 75-85%
- concentration of phenacetin detected in the culture (500 μM): 350 to 400 µM
- concentration of phenacetin detected in the culture medium (500 μM): 350 µM
- concentration of phenacetin measured in the culture (500 μM): about 200 μM
